The values that follow come from US20230098332A1, “HETEROCYCLIC DERIVATIVES AS TRMP8 ANTAGONISTS” (Givaudan SA, priority 2020, published 2023).

The structures appear in SMILES notation. Counter-ions that a name gives are not always drawn.

The target in this assay is T1, hTRPM8 (Homo sapiens, UniProt Q7Z2W7).
T1 construct: expressed in transfected cells
The assay is described as follows: Assay on TRPM8 modulators: calcium imaging (Fluo-4, Flexstation) in HEK293 cell line stably expressing hTRPM8. The note with it: TRPM8 agonist activity, calcium influx, HEK293 stably expressing hTRPM8, sigmoidal dose-response fit. Type of assay: cell-based. The protocol:
A HEK293 cell line stably expressing hTRPM8 was generated according to Klein et al., (Chem. Senses 36: 649-658, 2011) and receptor activation was monitored by calcium imaging in a Flexstation. For Ca-imaging assays of TRPM8 channel activation, cells were seeded on day 0 at a density of 12000 cells per well in Dulbecco's modified Eagle medium (DMEM) containing 9% foetal bovine serum in black, clear bottom 96-well plates that had been coated with 0.001% polyethyleneimine (molecular weight=60 000, Acros Organics). On day 2, agonists were evaluated via calcium imaging using Fluo-4. Briefly, growth medium was discarded, and the cells were incubated in the dark for 1 h at 37° C. in 50 μL loading buffer consisting of 2.7 μM Fluo-4 AM (Invitrogen) and […] probenecid (Sigma-Aldrich) in DMEM (without serum). After incubation, the plates were washed five times with 100 μL of assay buffer (in mM: 130 NaCl, 5 KCl, 10 HEPES, 2 CaCl2, and 10 glucose, pH7.4.) and further incubated in the dark at room temperature for 30 min. The cells were then washed five times with 100 μL assay buffer and then calcium influx to serial dilutions of inventive compounds were measured in a Flexstation 3 (Molecular Devices). Receptor activation was initiated following addition of 20 μl of a 10-fold concentrated ligand stock solution, which is also prepared in assay buffer. Fluorescence was continuously monitored for 15 seconds prior to ligand addition and for 105 seconds after ligand addition, for a total of 120 seconds. Maximal receptor activation in relation to solvent control and relative to 31.6 μM menthol is determined. Data from serial dilutions were processed with a KNIME workflow to fit a sigmoidal dose-response curve and to extrapolate EC50 values.

T1 sequence (Q7Z2W7 whole entry): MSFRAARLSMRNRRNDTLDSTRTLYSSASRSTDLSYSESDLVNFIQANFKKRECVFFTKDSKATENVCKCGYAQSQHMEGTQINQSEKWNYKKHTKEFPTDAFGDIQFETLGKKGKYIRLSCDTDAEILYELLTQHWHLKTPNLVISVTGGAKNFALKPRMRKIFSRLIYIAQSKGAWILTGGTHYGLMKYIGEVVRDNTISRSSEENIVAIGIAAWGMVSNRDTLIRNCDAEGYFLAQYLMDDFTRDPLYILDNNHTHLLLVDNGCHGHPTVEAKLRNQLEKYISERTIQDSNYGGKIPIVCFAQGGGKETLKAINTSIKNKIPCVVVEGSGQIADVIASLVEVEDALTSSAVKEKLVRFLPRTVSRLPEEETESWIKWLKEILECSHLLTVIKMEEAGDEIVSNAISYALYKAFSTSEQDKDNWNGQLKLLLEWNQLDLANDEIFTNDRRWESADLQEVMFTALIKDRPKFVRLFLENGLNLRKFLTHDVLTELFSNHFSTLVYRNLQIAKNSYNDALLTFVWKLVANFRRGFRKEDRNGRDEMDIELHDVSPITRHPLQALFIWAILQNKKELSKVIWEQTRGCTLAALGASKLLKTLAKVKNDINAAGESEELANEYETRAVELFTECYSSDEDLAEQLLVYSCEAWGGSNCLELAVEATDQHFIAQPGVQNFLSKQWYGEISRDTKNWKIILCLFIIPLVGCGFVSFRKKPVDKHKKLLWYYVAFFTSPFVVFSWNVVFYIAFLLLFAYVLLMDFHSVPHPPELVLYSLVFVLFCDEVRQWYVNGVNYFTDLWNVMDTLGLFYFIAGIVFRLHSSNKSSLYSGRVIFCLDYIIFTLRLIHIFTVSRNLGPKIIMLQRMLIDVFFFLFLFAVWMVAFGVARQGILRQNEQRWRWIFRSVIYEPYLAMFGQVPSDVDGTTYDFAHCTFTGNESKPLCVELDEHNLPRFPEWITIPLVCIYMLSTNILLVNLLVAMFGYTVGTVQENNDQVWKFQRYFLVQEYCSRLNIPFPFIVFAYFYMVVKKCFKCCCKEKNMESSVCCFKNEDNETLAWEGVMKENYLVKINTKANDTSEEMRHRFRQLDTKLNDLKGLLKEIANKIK

A word on the EC50: it is the concentration giving half of the maximal effect. As for `Cc1ccc(OCCN2CCOCC2)c(Cc2c(F)cccc2F)c1` [compound 151, 4-(2-(2-(2,6-difluorobenzyl)-4-methylphenoxy)ethyl)morpholine], the EC50 was in the range of 0.05 to 0.3 µM.

Take `Cc1cc(C)c(OC(C)CN2CCN(C)CC2)c(Cc2ccccc2C#N)c1` (centres unmarked) [compound 115, 2-(3,5-dimethyl-2-((1-(4-methylpiperazin-1-yl)propan-2-yl)oxy)benzyl)benzonitrile]: the EC50 fell in the range of 0.05 to 0.3 µM.

For the molecule `Cc1cc(C)c(OCC(C)N2CCOCC2)c(Cc2ccccc2C#N)c1` (centres unmarked) [compound 48, 2-(3,5-dimethyl-2-(2-morpholinopropoxy)benzyl)benzonitrile], the EC50 lay within 0.05 to 0.3 µM.

`Cc1ccc(OCCN2CCC(CO)CC2)c(Cc2ccccc2)c1` [compound 40, (1-(2-(2-benzyl-4-methylphenoxy)ethyl)piperidin-4-yl)methanol]: the EC50 was 1 to 35 µM.

Consider `Cc1ccc(OCCN2CC[S+]([O-])CC2)c(Cc2ccccc2)c1` [compound 160, 4-(2-(2-benzyl-4-methylphenoxy)ethyl)thiomorpholine 1-oxide], for which the EC50 lay in the range of 1 to 35 µM.

Regarding `COc1cccc(OCCN2CCN(C)CC2)c1Cc1ccccc1` [compound 67, 1-(2-(2-benzyl-3-methoxyphenoxy)ethyl)-4-methylpiperazine], the EC50 was in the range of 1 to 35 µM.

Turning to `Cc1ccc(CC(O)CN2CCN(C)CC2)c(Cc2ccccc2)c1` (centres unmarked) [compound 97, 1-(2-benzyl-4-methylphenyl)-3-(4-methylpiperazin-1-yl)propan-2-ol], the EC50 lay within 0.3 to 1 µM.

As to `Cc1ccc(CCN2CCN(C)CC2)c(Cc2ccccc2)c1` [compound 96, 1-(2-benzyl-4-methylphenethyl)-4-methylpiperazine], the EC50 was 1 to 35 µM.

In the case of `Cc1ccc(CC(=O)CN2CCN(C)CC2)c(Cc2ccccc2)c1` [compound 98, 1-(2-benzyl-4-methylphenyl)-3-(4-methylpiperazin-1-yl)propan-2-one], the 50% effective concentration (EC50) lay in the range of 1 to 35 µM.

Turning to `CCc1ccc(OCCN2CCN(C)CC2)c(Cc2ccccc2)c1` [compound 74, 1-(2-(2-benzyl-4-ethylphenoxy)ethyl)-4-methylpiperazine hydrochloride], the EC50 lay within 0.3 to 1 µM.

Turning to `Cc1cc(C)c(OCCN2CCOCC2)c(Cc2c(Cl)cccc2Cl)c1` [compound 148, 4-(2-(2-(2,6-dichlorobenzyl)-4,6-dimethylphenoxy)ethyl)morpholine], the EC50 is 0.3 to 1 µM.

As for `Cc1ccc(OCCN2CCOCC2)c(/C=C2\CCCCC2=O)c1` [compound 47, (E)-2-(5-methyl-2-(2-morpholinoethoxy)benzylidene)cyclohexan-1-one], the EC50 lay within 0.05 to 0.3 µM.

For the molecule `Cc1ccc(OCCCN2CCN(C)CC2)c(Cc2ccccc2)c1` [compound 99, 1-(3-(2-benzyl-4-methylphenoxy)propyl)-4-methylpiperazine hydrochloride], the EC50 fell in the range of 1 to 35 µM.

As to `CCOC(=O)c1ccc(Cc2cc(C)cc(C)c2OCCN2CCN(C)CC2)cc1` [compound 164, ethyl 4-(3,5-dimethyl-2-(2-(4-methylpiperazin-1-yl)ethoxy)benzyl)benzoate dihydrochloride], the EC50 lay in the range of 1 to 35 µM.

For `Cc1ccc(OCCN2CCN(C)CC2)c(Cc2ccccc2C#N)c1` [compound 129, 2-(5-methyl-2-(2-(4-methylpiperazin-1-yl)ethoxy)benzyl)benzonitrile], the EC50 was 0.05 to 0.3 µM.

For `Cc1cc(C)c(OCCN2CCN(C)CC2)c(Cc2cccc(C#N)c2)c1` [compound 139, 3-(3,5-dimethyl-2-(2-(4-methylpiperazin-1-yl)ethoxy)benzyl)benzonitrile dihydrochloride], the EC50 lay in the range of 1 to 35 µM.

Regarding `Cc1ccc(OCCC2CCN(C)CC2)c(Cc2ccccc2C#N)c1` [compound 128, 2-(5-methyl-2-(2-(1-methylpiperidin-4-yl)ethoxy)benzyl)benzonitrile], the EC50 fell in the range of 1 to 35 µM.

Take `Cc1cc(C)c(N(C)CCN2CCOCC2)c(Cc2ccccc2C#N)c1` [compound 126, 2-(3,5-dimethyl-2-(methyl(2-morpholinoethyl)amino)benzyl)benzonitrile]: the EC50 was below 0.05 µM.

`Cc1cc(C)c(OCCN2CCOCC2)c(Cc2ccccc2N)c1` [compound 121, 2-(3,5-dimethyl-2-(2-morpholinoethoxy)benzyl)aniline]: the EC50 was 1 to 35 µM.

Regarding `Cc1cc(C)c(OCCN2CCN(C)CC2)c(Cc2ccccn2)c1` [compound 63, 1-(2-(2,4-dimethyl-6-(pyridin-2-ylmethyl)phenoxy)ethyl)-4-methylpiperazine], the EC50 was 1 to 35 µM.

For the molecule `Cc1cccc(Cc2ccccc2)c1OCCN1CCN(C)CC1` [compound 92, 1-(2-(2-benzyl-6-methylphenoxy)ethyl)-4-methylpiperazine], the EC50 was 1 to 35 µM.

Turning to `Cc1ccc(NCCN2CCOCC2)c(Cc2c(F)cccc2F)c1` [compound 110, 2-(2,6-difluorobenzyl)-4-methyl-N-(2-morpholinoethyl)aniline], the EC50 lay in the range of 0.3 to 1 µM.

For the molecule `Cc1cc(C)c(OC(C)CO)c(Cc2ccccc2C#N)c1` (centres unmarked) [compound 106, 2-(2-((1-hydroxypropan-2-yl)oxy)-3,5-dimethylbenzyl)benzonitrile], the EC50 fell in the range of 0.3 to 1 µM.

For the molecule `Cc1cc(C)c(OCCN2CCOCC2)c(C(C)c2ccccc2F)c1` (centres unmarked) [compound 144, 4-(2-(2-(1-(2-fluorophenyl)ethyl)-4,6-dimethylphenoxy)ethyl)morpholine], the EC50 was in the range of 0.3 to 1 µM.

For `Cc1cc(C)c(OCCN2CCOCC2)c(Cc2ccccc2[N+](=O)[O-])c1` [compound 157, 4-(2-(2,4-dimethyl-6-(2-nitrobenzyl)phenoxy)ethyl)morpholine], the EC50 was in the range of 0.3 to 1 µM.

For the molecule `Cc1ccc(OCCN2CCOCC2)c(CC2CCCCC2=O)c1` (centres unmarked) [compound 131, 2-(5-methyl-2-(2-morpholinoethoxy)benzyl)cyclohexan-1-one], the EC50 is 1 to 35 µM.

`Cc1cc(C)c(OCCN2CCOCC2)c(Cc2ccc(F)cc2F)c1` [compound 146, 4-(2-(2-(2,4-difluorobenzyl)-4,6-dimethylphenoxy)ethyl)morpholine]: the EC50 lay in the range of 0.3 to 1 µM.

In the case of `Cc1cc(C)c(OCCN2CCN(C)CC2)c(Cc2ccccc2)c1` [compound 70, 1-(2-(2-benzyl-4,6-dimethylphenoxy)ethyl)-4-methylpiperazine], the EC50 fell in the range of 0.3 to 1 µM.

In the case of `COc1cc(C(C)(C)C)cc(Cc2ccccc2)c1OCCN1CCN(C)CC1` [compound 69, 1-(2-(2-benzyl-4-(tert-butyl)-6-methoxyphenoxy)ethyl)-4-methylpiperazine], the EC50 lay within 1 to 35 µM.

In the case of `C=C(c1ccccc1)c1cc(C)ccc1OCCN1CCN(C)CC1` [compound 102, 1-methyl-4-(2-(4-methyl-2-(1-phenylvinyl)phenoxy)ethyl)piperazine], the EC50 lay in the range of 0.3 to 1 µM.

As to `Cc1cccc(Cc2cc(C)ccc2OCCN2CCN(C)CC2)c1` [compound 104, 1-methyl-4-(2-(4-methyl-2-(3-methylbenzyl)phenoxy)ethyl)piperazine], the EC50 lay in the range of 1 to 35 µM.

For `Cc1cc(C)c(OCC(C)N2CCOCC2)c(Cc2c(F)cccc2F)c1` (centres unmarked) [compound 143, 4-(1-(2-(2,6-difluorobenzyl)-4,6-dimethylphenoxy)propan-2-yl)morpholine], the EC50 fell in the range of 0.05 to 0.3 µM.

As for `CC(C)c1ccc(OCCN2CCN(C)CC2)c(Cc2ccccc2)c1` [compound 75, 1-(2-(2-benzyl-4-isopropylphenoxy)ethyl)-4-methylpiperazine], the EC50 was 1 to 35 µM.

For the molecule `Cc1cc(C)c(OCCN2CCOCC2)c(Cc2cc(F)cc(F)c2)c1` [compound 154, 4-(2-(2-(3,5-difluorobenzyl)-4,6-dimethylphenoxy)ethyl)morpholine], the EC50 is 0.3 to 1 µM.

As to `Cc1ccc(OCCN2CCNCC2)c(Cc2ccccc2)c1` [compound 88, 1-(2-(2-benzyl-4-methylphenoxy)ethyl)piperazine], the EC50 is 1 to 35 µM.

On to `CN1CCN(CCOc2ccc(Cl)cc2Cc2ccccc2)CC1` [compound 73, 1-(2-(2-benzyl-4-chlorophenoxy)ethyl)-4-methylpiperazine hydrochloride], for which the EC50 lay within 0.3 to 1 µM.

With `Cc1ccc(OCCN2CCN(C)CC2)c(Cc2cccs2)c1` [compound 105, 1-methyl-4-(2-(4-methyl-2-(thiophen-2-ylmethyl)phenoxy)ethyl)piperazine hydrochloride], the half-maximal effective concentration (EC50) lay in the range of 0.3 to 1 µM.

Take `Cc1ccc(NCCN2CCN(C)CC2)c(Cc2ccccc2)c1` [compound 135, 2-benzyl-4-methyl-N-(2-(4-methylpiperazin-1-yl)ethyl)aniline]: the EC50 lay within 1 to 35 µM.

`Cc1ccc(N(C)CCN2CCOCC2)c(Cc2ccccc2)c1` [compound 138, 2-benzyl-N,4-dimethyl-N-(2-morpholinoethyl)aniline]: the EC50 was 0.05 to 0.3 µM.

`Cc1ccc(N(C)CCN2CCOCC2)c(Cc2c(F)cccc2F)c1` [compound 112, 2-(2,6-difluorobenzyl)-N,4-dimethyl-N-(2-morpholinoethyl)aniline]: the EC50 is below 0.05 µM.

Take `Cc1ccc(CC(O)CN2CCOCC2)c(Oc2ccccc2C#N)c1` (centres unmarked) [compound 107, 2-(2-(2-hydroxy-3-morpholinopropyl)-5-methylphenoxy)benzonitrile]: the EC50 fell in the range of 0.05 to 0.3 µM.
